# Measurements published in patent US5750531A, “Pyrimidine derivatives and processes for the preparation thereof” (Yuhan Corporation, priority 1994, dated 1998).
# Counter-ions that a name gives are not always drawn.
# Tests used:
# [1] = tested on: H^+ /K^+ -ATPase; assay: Reversibility Test (Dilution and Washout method, gastric vesicles); assay type: biochemical; conditions: compound 50 μM
# Experimental: Test 3. Reversibility Test
# Gastric vesicles were prepared by the same method as in Experiment 4-1 of WO 94/14795. The inhibition mechanism of proton pump activity by the present invention compound was tested in accordance with the so-called Dilution and Washout method [see e.g., D. J. Keeling, et al., Biochemical Pharmacology, 42(1), 123-130(1991)].
# Namely, test tubes were divided into two group, Groups 1 and 2. Each group was divided into four subgroups. 90 μl of 5 mM Pipes/Tris buffer(pH 7.4) and 10 μl of DMSO were added to subgroups 1 and 2 of each group. 90 μl of 5 mM Pipes/Tris buffer(pH 7.4) and 10 μl of the compound prepared in Example 43(50 μM) were added to subgroups 3 and 4 of each group. To all two groups, was added 100 μl of lyophilized vesicles at the concentration of 100 μg protein/ml and then preincubated at 37° C. for 15 minutes.
# 2 mM MgCl2 was added to subgroups 1 and 3 of Group 1. 2 mM MgCl2 and 10 mM KCl were added to subgroups 2 and 4 of Group 1. 3 mM ATP was added to all subgroups of Group 1 until the final volume became 500 μl. After incubation for 30 minutes, the inhibition of H^+ /K^+ -ATPase activity by the test compound was measured.
# After preincubation as described above, each subgroup of Group 2 was diluted with 50-fold volume of 5 mM Pipes/Tris buffer(pH7.4) and then centrifuged for 60 minutes by means of Beckman ultracentrifuge(Model L8-80). The supernatant was discarded and washed out by 10 ml of 5 mM Pipes/Tris buffer(ph 7.4). The resulting pellet was suspended with 5 mM Pipes/Tris buffer (pH7.4) until the volume became the same as the preincubation volume.
# Thereafter, in accordance with the treatment to Group 1, each subgroup of Group 2 was treated with 2 mM MgCl2, 10 mM KCl and 3 mM ATP. And the final volume of each subgroup of Group 2 was made to be 500 μl.
# And it was further measured in accordance with the same procedures as above, except the compound prepared in Example 75 was used as a test compound.
# [2] = biological target: proton pump(H^+ /K^+ ATPase); assay: Inhibition of proton pump(H^+ /K^+ ATPase) activity; assay type: biochemical; conditions: pH 6.0, 37° C., 30 minutes preincubation and 30 minutes reaction; read-out: IC50 Test compound
# In short: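 Enzyme was preincubated with compound at five concentrations for 30 min at 37° C in Tris-HCl pH 6.0 with Mg2+, K+ and NH4Cl. Reaction ran 30 min at 37° C with ATP and was stopped with trichloroacetic acid. K+-stimulated inorganic phosphate release gave IC50 by Litchfield-Wilcoxon.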
# [3] = tested on: gastric secretion; assay: Inhibition of gastric secretion (pylorus ligation, Shay method); assay type: in vivo, Male Sprague-Dawley rats; conditions: 20 mg/kg intraduodenally, 5 hours; for Rel. Conc.: acid concentration relative to omeprazole; for Relative Acid Output: acid output relative to omeprazole; for Rel. Vol.: gastric juice volume relative to omeprazole
# In short: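 Rats under ether anaesthesia had the pylorus ligated, and the stomach was removed 5 h later. Gastric juice was centrifuged at 1,000 g, and its volume and acidity were measured. Relative volume, relative acid concentration and relative acid output […] were then calculated.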
# [4] = tested on: proton pump; conditions: in words, background; cited from earlier work
structure (smiles),measurement,setting,value
"Cc1nc(N(C)c2ccccc2)nc(N2CCc3ccccc3C2)c1C.Cl [Example 43, 5,6-dimethyl-2-(N-methylphenylamino)-4-(1,2,3,4-tetrahydroisoquinolin-2-yl)pyrimidine hydrochloride]","inhibition of H^+ /K^+ ATPase activity, after Dilution & Washout",[1],6%
same,"inhibition of H^+ /K^+ ATPase activity, before Dilution & Washout",[1],62%
same,IC50,[2],0.5 µM
same,Rel. Conc.,[3],0.59
same,Relative Acid Output,[3],0.82
same,Rel. Vol.,[3],0.7
"Cc1cc(F)ccc1Nc1nc(N2CCc3ccccc3C2)nc(C)c1C.Cl [Example 74, 5,6-dimethyl-4-(2-methyl-4-fluorophenylamino)-2-(1,2,3,4-tetrahydroisoquinolin-2-yl)pyrimidine hydrochloride]",IC50,[2],0.5 µM
same,Rel. Conc.,[3],1.49
same,Relative Acid Output,[3],1.16
same,Rel. Vol.,[3],1.22
"Cc1nc(N2CCc3ccccc3C2)nc(Nc2ccc(F)cc2)c1C.Cl [Example 75, 5,6-dimethyl-4-(4-fluorophenylamino)-2-(1,2,3,4-tetrahydroisoquinolin-2-yl)pyrimidine hydrochloride]","inhibition of H^+ /K^+ ATPase activity, after Dilution & Washout",[1],15%
same,"inhibition of H^+ /K^+ ATPase activity, before Dilution & Washout",[1],66.6%
same,IC50,[2],1.2 µM
same,Rel. Conc.,[3],1.62
same,Relative Acid Output,[3],1.20
same,Rel. Vol.,[3],1.3
"Cc1cc(F)ccc1Nc1nc(N2CCc3ccsc3C2C)nc(C)c1C.Cl (stereo not shown) [Example 77, 5,6-dimethyl-4-(2-methyl-4-fluorophenylamino)-2-(7-methyl-4,5,6,7-tetrahydrothieno[2,3-c]pyridin-6-yl)pyrimidine hydrochloride]",IC50,[2],3.6 µM
same,Rel. Conc.,[3],1.63
same,Relative Acid Output,[3],1.30
same,Rel. Vol.,[3],1.48
"Cc1nc(N2CCc3ccsc3C2C)nc(Nc2ccc(F)cc2)c1C.Cl (stereo not shown) [Example 78, 5,6-dimethyl-2-(7-methyl-4,5,6,7-tetrahydrothieno[2,3-c]pyridin-6-yl)-4-(4-fluorophenylamino)pyrimidine hydrochloride]",IC50,[2],8.5 µM
same,Rel. Conc.,[3],1.75
same,Relative Acid Output,[3],1.09
same,Rel. Vol.,[3],1.06
"Cc1cc(F)ccc1Nc1nc(N2CCc3ccccc3C2C)nc2c1CCC2 (stereo not shown) [Example 81, hydrochloride]",IC50,[2],0.4 µM
same,Rel. Conc.,[3],0.47
same,Relative Acid Output,[3],0.68
same,Rel. Vol.,[3],0.56
"Cc1cc(F)ccc1Nc1nc(N2CCc3ccccc3C2C)nc2c1CCCC2.Cl (stereo not shown) [Example 82, 4-(2-Methyl-4-fluorophenylamino)-2-(1-methyl-1,2,3,4-tetrahydroisoquinolin-2-yl)-5,6,7,8-tetrahydroquinazoline hydrochloride]",IC50,[2],1.1 µM
same,Rel. Conc.,[3],0.59
same,Relative Acid Output,[3],0.79
same,Rel. Vol.,[3],0.69
"Cc1cc(F)ccc1Nc1nc(N2CCc3ccccc3C2)nc2c1CCCC2.Cl [Example 83, 4-(2-methyl-4-fluorophenylamino)-2-(1,2,3,4-tetrahydroisoquinolin-2-yl)-5,6,7,8-tetrahydroquinazoline hydrochloride]",IC50,[2],1.4 µM
same,Rel. Conc.,[3],1.29
same,Relative Acid Output,[3],1.13
same,Rel. Vol.,[3],1.19
"COc1ccc2[nH]c([S+]([O-])Cc3ncc(C)c(OC)c3C)nc2c1 (stereo not shown) [Omeprazole, omeprazole, reference compound]",reversibility of proton pump inhibition,[4],irreversible
